Measured values published in US10413545B2, “Imidazolin-5-one derivative useful as FASN inhibitors for the treatment of cancer” (Janssen Pharmaceutica NV, priority 2013, dated 2019).
Like-named read-outs stand apart in the source and are kept apart here.

Experiments:
A2780 ovarian cells = assay: A2780 Ovarian Cell Proliferation Assay in Lipid Reduced Medium, with and without Palmitate (MTT); assay type: cell-based; conditions: 10% lipid-reduced serum, 96 h; for IC50: Homo sapiens
[1] = target: Human FASN (hFASN enzyme, full length) (Homo sapiens (Human), UniProt P49327); assay: Fatty Acid Synthase (FASN) Inhibition Scintillation Proximity Assay; assay type: biochemical; conditions: hFASN SPA, 3H-acetyl-CoA/malonyl-CoA; mean if tested more than once; ~ = standard error of pIC50 >0.5
Experimental: In this assay, inhibition of FASN activity is measured using ^3H-acetyl-CoA and malonyl-CoA as substrates. ^3H-Acetyl CoA is converted to ^3H-palmitate through a series of reactions by the FASN protein, which contains 7 functional domains and carries out 7 enzymatic reactions to ultimately produce ^3H-palmitate. The assay principle is based upon the fact that ^3H-acetyl-CoA is hydrophilic and the end product, ^3H-palmitate is hydrophobic.
0.9 μL test compound (at concentrations of 30 μM, 10 μM, 3 μM, 1 μM, 0.30 μM, 0.10 μM, 0.03 μM and 0.01 μM)/DMSO and 10 μL hFASN enzyme (full length, 300 ng, purified in house) or 10 μL assay buffer was added to the wells. […] The reaction was stopped by adding 20 μL Streptavidin coupled imaging beads (25 mg/ml). After incubation for 30 minutes at room temperature in the dark, the 384 well plate was centrifuged at 1500 rpm for 3 minutes and was measured after at least 24 hrs by the LEADseeker™, measuring emission using a 610±20 nm pass filter.
(§1) Raw data generated by the instrument were normalized to % Controlmin values, which were calculated as: % Controlmin=100*(x−mLC)/(mHC−mLC)
where mLC and mHC were the means of the low control wells and high control wells on the plate, after manual exclusion of outliers. […]

[2] = tested on: LNCaP_Vancouver prostate cells; assay: In Vitro LNCaP Vancouver Prostate Cell Proliferation Assay in Lipid Reduced Medium; assay type: cell-based; conditions: 10% lipid reduced serum, 96 h, ATP-glow luminescence; for IC50: Prostate cell, read-out: pIC50 LNCaP_Vancouver prostate cell (converted)
[3] = target: FASN Keto-reductase Domain (hFASN enzyme, full length) (Homo sapiens (Human), UniProt P49327); assay: Fatty Acid Synthase Keto-Reductase Domain (FASN KR) Inhibition; assay type: biochemical; conditions: NADPH oxidation at 340 nm, ethyl acetoacetate substrate, mean if tested more than once; for IC50: read-out: FASN Keto-reductase Domain pIC50 (converted)
Experimental: After 20 minutes incubation at room temperature the plate was measured again (T2).
The decrease in absorbance was calculated as (Absorbance before incubation T1)−(Absorbance following incubation T2).
as §1
where mLC and mHC were the means of the low control wells and high control wells on the plate, after manual exclusion of outliers. A plot of Controlmin versus test compound concentration was fitted to a 4-parameter logistic curve using a non-linear least squares regression method.

[4] = tested on: PC-3M-Luc-C6 prostate cells; assay: In Vitro PC-3M-Luc-C6 Prostate Cell Proliferation Assay in Lipid Reduced Medium; assay type: cell-based; conditions: 10% lipid reduced serum, 96 h, ATP-glow luminescence; for IC50: Prostate cell, read-out: pIC50 PC-3M-Luc-C6 prostate cell (converted)
[5] = no palmitate, read-out: pIC50 Without Palmitate (converted)
[6] = 25 μM palmitate added (control), read-out: pIC50 With Palmitate (converted)

Sequence of FASN Keto-reductase Domain (hFASN enzyme, full length) (P49327 whole entry, the tested form may be a part): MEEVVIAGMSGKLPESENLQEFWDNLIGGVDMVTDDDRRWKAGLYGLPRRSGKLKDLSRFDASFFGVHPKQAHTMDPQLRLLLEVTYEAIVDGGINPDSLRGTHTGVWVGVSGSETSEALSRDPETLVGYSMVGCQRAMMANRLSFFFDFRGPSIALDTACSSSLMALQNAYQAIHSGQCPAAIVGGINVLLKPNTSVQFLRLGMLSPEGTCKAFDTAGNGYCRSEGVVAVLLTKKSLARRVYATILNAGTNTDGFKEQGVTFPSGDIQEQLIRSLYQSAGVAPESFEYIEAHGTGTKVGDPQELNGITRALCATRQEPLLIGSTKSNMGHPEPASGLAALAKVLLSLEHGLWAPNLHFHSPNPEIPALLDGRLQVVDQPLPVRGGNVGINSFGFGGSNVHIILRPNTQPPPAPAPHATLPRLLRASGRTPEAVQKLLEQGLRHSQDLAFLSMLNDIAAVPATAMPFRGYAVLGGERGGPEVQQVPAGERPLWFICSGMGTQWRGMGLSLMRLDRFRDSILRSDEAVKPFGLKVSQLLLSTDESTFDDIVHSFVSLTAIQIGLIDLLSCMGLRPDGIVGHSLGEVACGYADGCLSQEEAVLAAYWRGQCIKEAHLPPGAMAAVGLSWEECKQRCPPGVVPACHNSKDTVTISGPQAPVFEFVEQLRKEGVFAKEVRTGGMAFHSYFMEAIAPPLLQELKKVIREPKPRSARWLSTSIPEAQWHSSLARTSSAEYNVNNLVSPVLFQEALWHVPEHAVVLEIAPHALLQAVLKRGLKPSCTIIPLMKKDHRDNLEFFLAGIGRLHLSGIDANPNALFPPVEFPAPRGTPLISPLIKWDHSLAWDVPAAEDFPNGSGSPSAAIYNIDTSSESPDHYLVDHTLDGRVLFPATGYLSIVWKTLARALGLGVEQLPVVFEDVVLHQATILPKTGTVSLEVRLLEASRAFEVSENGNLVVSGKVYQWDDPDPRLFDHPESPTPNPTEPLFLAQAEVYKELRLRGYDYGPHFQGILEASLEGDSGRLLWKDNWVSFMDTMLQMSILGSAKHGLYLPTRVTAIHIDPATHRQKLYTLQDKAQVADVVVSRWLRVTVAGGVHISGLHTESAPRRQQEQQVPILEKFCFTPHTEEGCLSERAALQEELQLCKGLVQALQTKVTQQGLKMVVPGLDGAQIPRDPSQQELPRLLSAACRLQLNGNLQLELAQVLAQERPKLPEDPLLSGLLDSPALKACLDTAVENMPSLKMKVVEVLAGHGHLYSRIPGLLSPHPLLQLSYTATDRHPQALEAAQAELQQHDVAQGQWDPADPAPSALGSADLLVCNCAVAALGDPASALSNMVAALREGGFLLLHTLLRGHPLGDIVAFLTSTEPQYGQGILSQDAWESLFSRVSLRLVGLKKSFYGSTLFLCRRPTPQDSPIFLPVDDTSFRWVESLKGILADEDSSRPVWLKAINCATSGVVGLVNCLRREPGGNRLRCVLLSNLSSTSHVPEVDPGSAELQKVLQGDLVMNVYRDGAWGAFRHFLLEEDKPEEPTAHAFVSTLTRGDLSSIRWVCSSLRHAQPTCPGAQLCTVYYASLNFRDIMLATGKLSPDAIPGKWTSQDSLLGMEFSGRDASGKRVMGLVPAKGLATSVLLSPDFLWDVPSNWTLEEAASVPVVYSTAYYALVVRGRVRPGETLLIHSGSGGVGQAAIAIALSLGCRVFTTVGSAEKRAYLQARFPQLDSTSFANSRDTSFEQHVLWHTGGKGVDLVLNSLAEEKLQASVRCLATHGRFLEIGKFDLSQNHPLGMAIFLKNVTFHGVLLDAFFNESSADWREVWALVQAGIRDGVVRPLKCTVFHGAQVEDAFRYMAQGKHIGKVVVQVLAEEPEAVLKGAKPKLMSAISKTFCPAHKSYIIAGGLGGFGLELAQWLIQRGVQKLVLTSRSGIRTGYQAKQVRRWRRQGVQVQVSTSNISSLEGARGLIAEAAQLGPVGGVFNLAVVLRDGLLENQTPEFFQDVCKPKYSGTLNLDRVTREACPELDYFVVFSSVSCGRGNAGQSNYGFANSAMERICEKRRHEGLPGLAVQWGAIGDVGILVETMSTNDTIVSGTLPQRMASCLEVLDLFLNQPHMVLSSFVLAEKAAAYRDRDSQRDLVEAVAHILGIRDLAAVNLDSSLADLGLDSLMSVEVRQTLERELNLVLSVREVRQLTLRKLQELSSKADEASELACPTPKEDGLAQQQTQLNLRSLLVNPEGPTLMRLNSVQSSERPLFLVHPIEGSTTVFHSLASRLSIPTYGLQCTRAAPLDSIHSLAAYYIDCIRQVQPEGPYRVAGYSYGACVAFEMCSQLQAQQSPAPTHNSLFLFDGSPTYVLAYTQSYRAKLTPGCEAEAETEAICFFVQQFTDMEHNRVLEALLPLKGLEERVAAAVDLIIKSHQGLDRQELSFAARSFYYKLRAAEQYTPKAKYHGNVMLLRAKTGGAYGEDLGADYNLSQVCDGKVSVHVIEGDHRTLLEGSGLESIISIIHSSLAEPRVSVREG
Sequence of Human FASN (hFASN enzyme, full length) (P49327 whole entry, the tested form may be a part): as above

Row | Compound | IC50 [2] | IC50 [3] | IC50 [4] | IC50 (A2780 ovarian cells; [5]) | further results
1 | 1-((1-(cyclopropanecarbonyl)azetidin-3-yl)methyl)-2-(2-fluoro-4-(1-methyl-1H-indazol-5-yl)phenyl)-4,4-dimethyl-1H-1-imidazol-5(4H)-one [Compound 69] | – | – | – | – | pIC50 With Palmitate (A2780 ovarian cells; 25 μM palmitate added (control)): <5; pIC50 Without Palmitate (A2780 ovarian cells; no palmitate): 7.19; Human FASN pIC50 [1]: 6.96; pIC50 LNCaP_Vancouver prostate cell [2]: 6.87; FASN Keto-reductase Domain pIC50 [3]: 6.67; pIC50 PC-3M-Luc-C6 prostate cell [4]: 7.04
2 | CC1(C)N=C(c2ccc(-c3n[nH]c4ccccc34)cc2F)N(C[C@@H]2CCN(C(=O)C3CC3)C2)C1=O [Compound 57, (R)-1-((1-(cyclopropanecarbonyl)pyrrolidin-3-yl)methyl)-2-(2-fluoro-4-(1H-indazol-3-yl)phenyl)-4,4-dimethyl-1H-imidazol-5(4H)-one] | 1780 nM | 2750 nM | 646 nM | – | –
3 | CC1(C)N=C(c2ccc(-c3c[nH]c4ccccc34)cc2F)N(C[C@@H]2CCN(C(=O)C3CC3)C2)C1=O [Compound 63, (R)-1-((1-(cyclopropanecarbonyl)pyrrolidin-3-yl)methyl)-2-(2-fluoro-4-(1H-indol-3-yl)phenyl)-4,4-dimethyl-1H-imidazol-5(4H)-one] | 525 nM | 186 nM | – | – | –
4 | CC1(C)N=C(c2ccc(-c3ccc4cc(F)ccc4c3)cc2F)N(C[C@@H]2CCN(C(=O)C3CC3)C2)C1=O [Compound 66] | 692 nM | 52.5 nM | 589 nM | ~427 nM | –
5 | CC1(C)N=C(c2ccc(-c3ccc4cnccc4c3)cc2F)N(C[C@@H]2CCN(C(=O)C3CC3)C2)C1=O [Compound 68, (R)-1-((1-(cyclopropanecarbonyl)pyrrolidin-3-yl)methyl)-2-(2-fluoro-4-(isoquinolin-6-yl)phenyl)-4,4-dimethyl-1H-imidazol-5(4H)-one] | 204 nM | 47.9 nM | – | 17.4 nM | –
6 | CC1(C)N=C(c2ccc(-c3nc4ccccc4[nH]3)cc2)N(C[C@@H]2CCN(C(=O)C3CC3)C2)C1=O [Compound 71, (R)-2-(4-(1H-benzo[d]imidazol-2-yl)phenyl)-1-((1-(cyclopropanecarbonyl)pyrrolidin-3-yl)methyl)-4,4-dimethyl-1H-imidazol-5(4H)-one] | – | – | – | ~9330 nM | IC50 (A2780 ovarian cells; [6]): > 10000 nM; Human FASN pIC50 [1]: 5.23
7 | Cc1cc(-c2ccc(-c3cnn(C)c3)cc2)ccc1C1=NC(C)(C)C(=O)N1CC1CN(C(=O)C2(C)CC2)C1 [Compound 87, 4,4-dimethyl-2-(3-methyl-4′-(1-methyl-1H-pyrazol-4-yl)-[1,1′-biphenyl]-4-yl)-1-((1-(1-methylcyclopropanecarbonyl)azetidin-3-yl)methyl)-1H-imidazol-5(4H)-one] | 178 nM | – | ~70.8 nM | 11.7 nM | IC50 (A2780 ovarian cells; [6]): ~10000 nM
